According to patent US20090036492A1, “Novel Cercosporamide Derivative” (priority 2005, published 2009):

System: male KK mice
Assay: Blood glucose lowering effect in diabetic KK mice
Format: in vivo
Details: 15 to 20 weeks old, feed containing 0.03% of the compound, three days, blood glucose on the 3rd day vs control group
Excerpt: Six-week-old male KK mice were purchased from CLEA Japan, Inc. and then were fed until 15 to 20 weeks old and affected with diabetes. The mice were individually fed during the adaptation period and the test period, and water and feed (FR2, Funabashi Farm) were freely ingested.
At the start of the experiment, after body weight measurement, blood was collected from the tail vein of the mice into a heparin-coated glass tube and centrifuged, and then plasma was separated. The glucose level in the plasma was measured by Glucoloader GXT (A&T Corp.), and individuals having a blood glucose level of about 350 mg/dl or more were selected. Groups each having 3 to 4 mice were used for the experiment, and the mice were grouped to make the average body weight and the average blood glucose level similar. Each compound was administered to a compound administration group by feeding a mixture with feed containing 0.03% of the compound. A separate group in which the mice were fed only with feed was a control group.
The experiment period (drug administration period) was three days. The grouping day was the 0th day. On the 3rd day, body weight was measured and blood was collected from the tail vein to measure the blood glucose level.
The blood glucose lowering efficacy was determined by the following formula.
Blood glucose lowering efficacy=[(Control group blood glucose level−Compound administration group blood glucose level)/Control group blood glucose level]×100

Row | SMILES | Blood glucose lowering efficacy (%)
1 | COc1cc(O)c2c(c1C(=O)NCc1ccc(OCc3ccccc3F)c3ccccc13)OC1=CC(O)=C(C(C)=O)C(=O)[C@]12C [Example 144, (9aS)-8-Acetyl-N-({4-[(2-fluorobenzyl)oxy]-1-naphthyl}methyl)-1,7-dihydroxy-3-methoxy-9a-methyl-9-oxo-9,9a-dihydrodibenzo[b,d]furan-4-carboxamide] | 41
2 | COc1cc(O)c2c(c1C(=O)NCc1ccc(Oc3ccccc3Cl)c3ccccc13)OC1=CC(O)=C(C(C)=O)C(=O)[C@]12C [Example 166, (9aS)-8-Acetyl-N-{[4-(2-chlorophenoxy)-1-naphthyl]methyl}-1,7-dihydroxy-3-methoxy-9a-methyl-9-oxo-9,9a-dihydrodibenzo[b,d]furan-4-carboxamide] | 47

Same assay, conditions: Mus musculus, po, 72 h, 15 to 20 weeks old, feed containing 0.03% of the compound, three days, blood glucose on the 3rd day vs control group, read-out: Blood glucose lowering efficacy (%)

Row | SMILES | inhibition in vivo at 0.03 % in feed [%]
3 | COc1cc(O)c2c(c1C(=O)NCc1c(C)ccc3ccccc13)OC1=CC(O)=C(C(C)=O)C(=O)[C@]12C [Example 27, (9aS)-8-Acetyl-1,7-dihydroxy-3-methoxy-9a-methyl-N-[(2-methyl-1-naphthyl)methyl]-9-oxo-9,9a-dihydrodibenzo[b,d]furan-4-carboxamide] | 42
4 | COc1cc(O)c2c(c1C(=O)NCc1c(C)c(C)cc(C)c1C)OC1=CC(O)=C(C(C)=O)C(=O)[C@]12C [Example 36, (9aS)-8-Acetyl-1,7-dihydroxy-3-methoxy-9a-methyl-9-oxo-N-(2,3,5,6-tetramethylbenzyl)-9,9a-dihydrodibenzo[b,d]furan-4-carboxamide] | 36
5 | COc1cc(O)c2c(c1C(=O)NCc1c(C)c(C)cc3ccccc13)OC1=CC(O)=C(C(C)=O)C(=O)[C@]12C [Example 54, (9aS)-8-Acetyl-1,7-dihydroxy-3-methoxy-9a-methyl-N-[(2,3-dimethyl-1-naphthyl)methyl]-9-oxo-9,9a-dihydrodibenzo[b,d]furan-4-carboxamide] | 34
6 | CCc1ccc2ccccc2c1CNC(=O)c1c(OC)cc(O)c2c1OC1=CC(O)=C(C(C)=O)C(=O)[C@]12C [Example 56, (9aS)-8-Acetyl-N-[(2-ethyl-1-naphthyl)methyl]-1,7-dihydroxy-3-methoxy-9a-methyl-9-oxo-9,9a-dihydrodibenzo[b,d]furan-4-carboxamide] | 24
7 | COc1cc(O)c2c(c1C(=O)NCc1c(C)c(C)c(C)c3ccccc13)OC1=CC(O)=C(C(C)=O)C(=O)[C@]12C [Example 69, (9aS)-8-Acetyl-1,7-dihydroxy-3-methoxy-9a-methyl-N-[(2,3,4-trimethyl-1-naphthyl)methyl]-9-oxo-9,9a-dihydrodibenzo[b,d]furan-4-carboxamide] | 47
8 | CC(=O)C1=C(O)C=C2Oc3c(C(=O)NCc4c(C)ccc5ccccc45)c(OC(F)F)cc(O)c3[C@]2(C)C1=O [Example 86, (9aS)-8-Acetyl-3-(difluoromethoxy)-1,7-dihydroxy-9a-methyl-N-[(2-methyl-1-naphthyl)methyl]-9-oxo-9,9a-dihydrodibenzo[b,d]furan-4-carboxamide] | 31
9 | CO/N=C(\C)C1=C(O)C=C2Oc3c(C(=O)NCc4c(C)ccc5ccccc45)c(OC)cc(O)c3[C@]2(C)C1=O [Example 87, (9aS)-1,7-Dihydroxy-3-methoxy-8-[(1E)-N-methoxyethaneimidoyl]-9a-methyl-N-[(2-methyl-1-naphthyl)methyl]-9-oxo-9,9a-dihydrodibenzo[b,d]furan-4-carboxamide] | 45
10 | CCCc1c(C)cc(C)c(C)c1CNC(=O)c1c(OC)cc(O)c2c1OC1=CC(O)=C(C(C)=O)C(=O)[C@]12C [Example 94, (9aS)-8-Acetyl-1,7-dihydroxy-3-methoxy-9a-methyl-9-oxo-N-(2,3,5-trimethyl-6-propylbenzyl)-9,9a-dihydrodibenzo[b,d]furan-4-carboxamide] | 44
11 | CC#CCOc1cc(C)c(CNC(=O)c2c(OC)cc(O)c3c2OC2=CC(O)=C(C(C)=O)C(=O)[C@]23C)c(C)c1 [Example 97, (9aS)-8-Acetyl-N-[4-(2-butynyloxy)-2,6-dimethylbenzyl]-1,7-dihydroxy-3-methoxy-9a-methyl-9-oxo-9,9a-dihydrodibenzo[b,d]furan-4-carboxamide] | 53
12 | CCC#CCOc1cc(C)c(CNC(=O)c2c(OC)cc(O)c3c2OC2=CC(O)=C(C(C)=O)C(=O)[C@]23C)c(C)c1 [Example 101, (9aS)-8-Acetyl-N-[2,6-dimethyl-4-(2-pentynyloxy)benzyl]-1,7-dihydroxy-3-methoxy-9a-methyl-9-oxo-9,9a-dihydrodibenzo[b,d]furan-4-carboxamide] | 47
13 | CC#CCOc1cc(C)c(CNC(=O)c2c(OC)cc(O)c3c2OC2=CC(O)=C(C(C)=O)C(=O)[C@]23C)c(C)c1C [Example 102, (9aS)-8-Acetyl-N-[4-(2-butynyloxy)-2,3,6-trimethylbenzyl]-1,7-dihydroxy-3-methoxy-9a-methyl-9-oxo-9,9a-dihydrodibenzo[b,d]furan-4-carboxamide] | 63
14 | CCC#CCOc1cc(C)c(CNC(=O)c2c(OC)cc(O)c3c2OC2=CC(O)=C(C(C)=O)C(=O)[C@]23C)c(C)c1C [Example 103, (9aS)-8-Acetyl-1,7-dihydroxy-3-methoxy-9a-methyl-9-oxo-N-[2,3,6-trimethyl-4-(2-pentynyloxy)benzyl]-9,9a-dihydrodibenzo[b,d]furan-4-carboxamide] | 62
15 | COc1cc(O)c2c(c1C(=O)NCc1ccc(OCc3ccccc3)c3ccccc13)OC1=CC(O)=C(C(C)=O)C(=O)[C@]12C [Example 104, (9aS)-8-Acetyl-N-{[4-(benzyloxy)-1-naphthyl]methyl}-1,7-dihydroxy-3-methoxy-9a-methyl-9-oxo-9,9a-dihydrodibenzo[b,d]furan-4-carboxamide] | 53
16 | COc1cc(O)c2c(c1C(=O)NCc1ccc(OCc3ccc(F)cc3)c3ccccc13)OC1=CC(O)=C(C(C)=O)C(=O)[C@]12C [Example 106, (9aS)-8-Acetyl-N-({4-[(4-fluorobenzyl)oxy]-1-naphthyl}methyl)-1,7-dihydroxy-3-methoxy-9a-methyl-9-oxo-9,9a-dihydrodibenzo[b,d]furan-4-carboxamide] | 51
17 | COc1cc(O)c2c(c1C(=O)NCc1c(C)cc(NS(=O)(=O)c3ccc(Cl)cc3Cl)cc1C)OC1=CC(O)=C(C(C)=O)C(=O)[C@]12C [Example 111, (9aS)-8-Acetyl-N-(4-{[(2,4-dichlorophenyl)sulfonyl]amino}-2,6-dimethylbenzyl)-1,7-dihydroxy-3-methoxy-9a-methyl-9-oxo-9,9a-dihydrodibenzo[b,d]furan-4-carboxamide] | 31
18 | CCc1c(C)cc2ccccc2c1CNC(=O)c1c(OC)cc(O)c2c1OC1=CC(O)=C(C(C)=O)C(=O)[C@]12C [Example 116, (9aS)-8-Acetyl-N-[(2-ethyl-3-methyl-1-naphthyl)methyl]-1,7-dihydroxy-3-methoxy-9a-methyl-9-oxo-9,9a-dihydrodibenzo[b,d]furan-4-carboxamide] | 32
19 | COc1cc(O)c2c(c1C(=O)NCc1c(C)cc(NS(=O)(=O)c3cc(C)c(Cl)cc3Cl)cc1C)OC1=CC(O)=C(C(C)=O)C(=O)[C@]12C [Example 140, (9aS)-8-Acetyl-N-(4-{[(2,4-dichloro-5-methylphenyl)sulfonyl]amino}-2,6-dimethylbenzyl)-1,7-dihydroxy-3-methoxy-9a-methyl-9-oxo-9,9a-dihydrodibenzo[b,d]furan-4-carboxamide] | 18
20 | COc1cc(O)c2c(c1C(=O)NCc1ccc(OCc3ccc(F)cc3F)c3ccccc13)OC1=CC(O)=C(C(C)=O)C(=O)[C@]12C [Example 146, (9aS)-8-Acetyl-N-({4-[(2,4-difluorobenzyl)oxy]-1-naphthyl}methyl)-1,7-dihydroxy-3-methoxy-9a-methyl-9-oxo-9,9a-dihydrodibenzo[b,d]furan-4-carboxamide] | 49
21 | COc1cc(O)c2c(c1C(=O)NCc1ccc(OCc3ccccc3Cl)c3ccccc13)OC1=CC(O)=C(C(C)=O)C(=O)[C@]12C [Example 147, (9aS)-8-Acetyl-N-({4-[(2-chlorobenzyl)oxy]-1-naphthyl}methyl)-1,7-dihydroxy-3-methoxy-9a-methyl-9-oxo-9,9a-dihydrodibenzo[b,d]furan-4-carboxamide] | 62
22 | C=CCO/N=C(\C)C1=C(O)C=C2Oc3c(C(=O)NCc4c(C)cc(NS(=O)(=O)c5ccc(Cl)cc5Cl)cc4C)c(OC)cc(O)c3[C@]2(C)C1=O [Example 162, (9aS)-8-[(1E)-N-(Allyloxy)ethaneimidoyl]-N-(4-{[(2,4-dichlorophenyl)sulfonyl]amino}-2,6-dimethylbenzyl)-1,7-dihydroxy-3-methoxy-9a-methyl-9-oxo-9,9a-dihydrodibenzo[b,d]furan-4-carboxamide] | 43
23 | COc1cc(O)c2c(c1C(=O)NCc1ccc(Oc3ccc(Cl)cc3Cl)c3ccccc13)OC1=CC(O)=C(C(C)=O)C(=O)[C@]12C [Example 164, (9aS)-8-Acetyl-N-{[4-(2,4-dichlorophenoxy)-1-naphthyl]methyl}-1,7-dihydroxy-3-methoxy-9a-methyl-9-oxo-9,9a-dihydrodibenzo[b,d]furan-4-carboxamide] | 43
